# Values quoted from earlier work, collected in paper PMC12824232 (Nature Communications, 2025).
# Legend:
# [1] = system: ER+/HER2− advanced breast cancer; settings: patients with ESR1 mutations, phase 3 trial
# [2] = system: patients with ER+/HER2− advanced breast cancer; settings: phase 2 trial
SMILES,median PFS [1] [months],patients with Grade 3/4 TRAEs [2] [%]
CCNCCc1ccc(CN(CC)c2cc(OC)ccc2[C@@H]2CCc3cc(O)ccc3C2)cc1 [elacestrant],3.8,
O=C1CC[C@H](N2Cc3cc(N4CCN(CC5CCN(c6ccc([C@@H]7c8ccc(O)cc8CC[C@@H]7c7ccccc7)cc6)CC5)CC4)ccc3C2=O)C(=O)N1 [vepdegestrant],,6
